Legend:
[1] = tested on: normal NK cells expanded with K562-aAPC; experiment: percent inhibition of viability; higher = more inhibition; conditions: 72 h, IL-2 2.5 ng/mL
Protocol: (§1)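 Drug sensitivity and resistance testing on K562-aAPC-expanded normal NK cells: 5 concentrations (10-fold steps over a 10,000-fold range), 72 h at 37 °C, viability by CellTiter-Glo normalised to DMSO and benzethonium chloride controls; DSS from the fitted curve.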

[2] = tested on: DERL-7 (IL-2 2.5 ng/mL); experiment: drug sensitivity score (DSS) (DSS units); higher = more sensitive; extreme values may be limits of the assay; conditions: 72 h
[3] = tested on: normal primary NK cells, pool 3 (3 donors) (IL-2 2.5 ng/mL); experiment: as above; conditions: 72 h
[4] = tested on: KHYG-1 (IL-2 2.5 ng/mL); experiment: as above; conditions: 72 h
[5] = tested on: normal primary NK cells, pool 2 (3 donors) (IL-2 2.5 ng/mL); experiment: as above; conditions: 72 h
[6] = tested on: SNK-6 (IL-2 2.5 ng/mL); experiment: as above; conditions: 72 h
[7] = tested on: NK-YS (IL-2 2.5 ng/mL); experiment: as above; conditions: 72 h
[8] = tested on: normal primary NK cells, pool 1 (3 donors), resting (IL-2 0 ng/mL); experiment: as above; conditions: 72 h
[9] = tested on: KAI3 (IL-2 2.5 ng/mL); experiment: as above; conditions: 72 h
[10] = tested on: IMC-1 (IL-2 20 ng/mL); experiment: as above; conditions: 72 h
[11] = tested on: normal primary NK cells, pool 1 (3 donors) (IL-2 2.5 ng/mL); experiment: as above; conditions: 72 h
[12] = tested on: NK-92 (IL-2 2.5 ng/mL); experiment: as above; conditions: 72 h
[13] = tested on: YT (IL-2 2.5 ng/mL); experiment: as above; conditions: 72 h
[14] = tested on: NKL (IL-2 2.5 ng/mL); experiment: as above; conditions: 72 h
[15] = tested on: DERL-7 (IL-2 2.5 ng/mL); experiment: percent inhibition of viability; higher = more inhibition; conditions: 72 h
[16] = tested on: normal primary NK cells, pool 3 (3 donors) (IL-2 2.5 ng/mL); experiment: as above; conditions: 72 h
[17] = tested on: KHYG-1 (IL-2 2.5 ng/mL); experiment: as above; conditions: 72 h
[18] = tested on: normal primary NK cells, pool 2 (3 donors) (IL-2 2.5 ng/mL); experiment: as above; conditions: 72 h
[19] = tested on: SNK-6 (IL-2 2.5 ng/mL); experiment: as above; conditions: 72 h
[20] = tested on: NK-YS (IL-2 2.5 ng/mL); experiment: as above; conditions: 72 h
[21] = tested on: normal primary NK cells, pool 1 (3 donors), resting (IL-2 0 ng/mL); experiment: as above; conditions: 72 h
[22] = tested on: KAI3 (IL-2 2.5 ng/mL); experiment: as above; conditions: 72 h
[23] = tested on: IMC-1 (IL-2 20 ng/mL); experiment: as above; conditions: 72 h
[24] = tested on: normal primary NK cells, pool 1 (3 donors) (IL-2 2.5 ng/mL); experiment: as above; conditions: 72 h
[25] = tested on: NK-92 (IL-2 2.5 ng/mL); experiment: as above; conditions: 72 h
[26] = tested on: YT (IL-2 2.5 ng/mL); experiment: as above; conditions: 72 h
[27] = tested on: NKL (IL-2 2.5 ng/mL); experiment: as above; conditions: 72 h
[28] = tested on: normal NK cells expanded with K562-aAPC; experiment: drug sensitivity score (DSS) (DSS units); higher = more sensitive; extreme values may be limits of the assay; conditions: 72 h; IL-2 2.5 ng/mL
Protocol: as §1

CCn1c(-c2nonc2N)nc2c(C#CC(C)(C)O)ncc(OC[C@H]3CCCNC3)c21 (max concentration tested 10000 nM)
percent inhibition of viability [%]
Conditions	1 nM	10 nM	100 nM	1000 nM	10000 nM
[1]	-1.22	-3.93	-1.94	9.38	20.1
[15]	-2.25	7.79	17.3	63.7	76.9
[16]	-10.1	-4.39	-9.15	11.5	66.5
[17]	-3.45	-0.24	-0.07	6.49	7.82
[18]	-2.46	-9.24	-1.71	8.35	69.8
[19]	1.15	26.6	-2.76	-11.1	-25.3
[20]	-2.15	0.74	-0.26	2.64	-8.44
[21]	-12.7	-5.26	17.9	18.4	83.5
[22]	0.15	-2.81	1.43	5.52	-1.32
[23]	-5.57	1.4	-4.57	-6.32	-11.7
[24]	-8.01	-9.66	4.32	9.43	76.3
[25]	-4.48	-3.46	-8.79	-1.49	26.3
[26]	-1.14	-1.15	0.26	5.9	9.45
[27]	-5.47	-17.8	-8.99	0.96	9.13

Conditions	drug sensitivity score
[2]	13.9
[3]	5.55
[4]	0
[5]	5.23
[6]	0
[7]	0
[8]	7.29
[9]	0
[10]	0
[11]	5.8
[12]	0.93
[13]	0
[14]	0
[28]	1.58

CCc1nc(-c2cccc(C)c2)c(-c2ccnc(NC(=O)c3ccccc3)c2)s1 [TAK-715] (max concentration tested 10000 nM)
percent inhibition of viability [%]
Conditions	1 nM	10 nM	100 nM	1000 nM	10000 nM
[1]	-6.95	-2.48	-3.15	7.93	1.86
[15]	-3.04	0.75	-2.18	-4.76	8.69
[16]	-8.64	-2.23	3.1	-8.31	13.7
[17]	-3.44	6.66	1.56	3.92	42.6
[18]	-3.82	0.59	1.26	-4.23	23.5
[19]	-15.1	-7.56	-2.44	-0.98	67
[20]	-4.18	3.4	5.2	13.3	54.6
[21]	2.15	0.59	-2.35	-18.5	45.6
[22]	-4.52	11.6	8.66	14	47
[23]	-6.3	1.07	-0.32	8.04	35.2
[24]	-3.9	-10.5	-3.55	-13.9	13.3
[25]	-3.47	-2.91	1.84	9.91	81.8
[26]	-1.34	5.71	0.2	5.66	48.7
[27]	-0.29	6.95	13.8	30.5	43.6

Conditions	drug sensitivity score
[2]	0
[3]	0.05
[4]	2.79
[5]	0.63
[6]	3.59
[7]	5.02
[8]	1.63
[9]	3.97
[10]	2.93
[11]	0.02
[12]	6.19
[13]	3.5
[14]	6.94
[28]	0

Cc1cc(C(C)Nc2ccccc2)c2nc(N3CCOCC3)cc(=O)n2c1 (stereo not given) [TGX-221] (max concentration tested 10000 nM)
percent inhibition of viability [%]
Conditions	1 nM	10 nM	100 nM	1000 nM	10000 nM
[1]	-0.66	0.04	5.39	4.41	32.4
[15]	0.96	-2.74	-1.99	1.82	27.4
[16]	-7.93	-8.91	-2.84	3.04	11.7
[17]	2.88	11.7	4.06	7.54	14.4
[18]	-16.6	-10.3	-4.51	4.63	29.4
[19]	31	21.5	15.7	15.3	-7.08
[20]	-2.78	-1.69	-1.28	2.25	27.1
[21]	-4.4	0.78	-11.3	14.5	51.2
[22]	-3.13	-6.25	-6.02	4.84	23.6
[23]	-6.36	-5.05	-4.93	-4.5	-0.86
[24]	-13.5	-0.76	-6.33	4.04	29.7
[25]	2.02	4.62	5.66	32.2	31.8
[26]	-1.99	2.32	1.97	11.6	28.1
[27]	2.96	0.41	10.3	15.5	28

Conditions	drug sensitivity score
[2]	1.37
[3]	0.14
[4]	0
[5]	2
[6]	0
[7]	1.43
[8]	4.9
[9]	1.55
[10]	0
[11]	1.93
[12]	6.45
[13]	2.28
[14]	2.96
[28]	2.2

CC(=O)NCC(=O)N1[C@@H]2CC[C@H]1c1ccc(Nc3ncc(C(F)(F)F)c(NC4CCC4)n3)cc12 (max concentration tested 10000 nM)
percent inhibition of viability [%]
Conditions	1 nM	10 nM	100 nM	1000 nM	10000 nM
[1]	-3.83	6.05	58.2	91	101
[15]	-3.49	2.07	76.5	79.7	101
[16]	-18.1	-9.96	2.88	33.6	97.8
[17]	5.24	7.98	82.5	103	105
[18]	-12.8	1.36	16.8	50.3	96.5
[19]	9.63	33.2	82.6	85.3	98.7
[20]	-3.49	7.45	62.7	65.7	102
[21]	-11.5	-16.5	-21.3	-42.6	91.9
[22]	2	18.3	49.2	85	103
[23]	1.14	-0.36	54.2	92.5	102
[24]	4.9	-3.44	17	44.7	98.1
[25]	-9.89	2.73	54	76.7	104
[26]	3.79	9.48	23.2	62.2	103
[27]	-9.97	18.8	54.1	75	104

Conditions	drug sensitivity score
[2]	27.3
[3]	10
[4]	28.7
[5]	12
[6]	31
[7]	21.9
[8]	3.63
[9]	22.9
[10]	24.2
[11]	11
[12]	22.1
[13]	15.1
[14]	22.5
[28]	24.6

Cc1[nH]c(/C=C2\C(=O)Nc3ccccc32)c(C)c1CCC(=O)O [Orantinib] (max concentration tested 10000 nM)
percent inhibition of viability [%]
Conditions	1 nM	10 nM	100 nM	1000 nM	10000 nM
[1]	-1.66	-4.19	-1.4	6.04	9.43
[15]	1.12	-2.21	-6.87	-10.2	-8.27
[16]	-4.8	2.21	11.9	-1.68	9.39
[17]	-7.11	-2.97	-4.54	8.46	13.8
[18]	-0.89	-3.13	6.7	-0.82	5.48
[19]	-0.4	10.2	3.89	15.8	-2.27
[20]	-6.4	-2.5	-1.18	7.48	23.9
[21]	-0.49	20.7	11.4	12.2	21.7
[22]	0.42	1.13	-2.39	7	29.4
[23]	-7.71	-4.44	-5.94	1.86	11
[24]	-0.7	9.63	7.39	4.16	9.93
[25]	-10.9	-1.51	-13.1	11.1	13
[26]	-3.34	1.08	0.41	8.54	18.7
[27]	-19.2	-18.2	-1.7	6.18	14.6

Conditions	drug sensitivity score
[2]	0
[3]	0
[4]	0.65
[5]	0
[6]	0
[7]	1.86
[8]	3.33
[9]	2.32
[10]	0.04
[11]	0
[12]	0.62
[13]	1.23
[14]	0.67
[28]	0

From the supplement of paper PMC5908809
